Tested on: HEK293 cells
Assay: Preliminary screening as mRNA vectors, EGFP mRNA transfection of HEK293 cells
Assay type: cell-based
Details: EGFP mRNA 50 ng per well, 96-well plates; percentage of GFP fluorescent cells relative to total number of cells (Hoechst)
Method in brief: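 Each well of HEK293 cells received 50 ng of EGFP mRNA. Efficiency was expressed as percent GFP-expressing cells over Hoechst-defined total cell number.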

SMILES | Absolute mRNA transfection efficiency in HEK293 cells
CCCCCCCCSc1nc(NCCCCCCC)nc(NCCN2CCOCC2)n1 [Compound D2S8N7] | 0.9%
CCCCCCCCCCCCSc1nc(NCCCN2CCOCC2)nc(SCCCCCCCC)n1 [Compound D8S8S12] | 67.9%
CCCCCCCCCCCNc1nc(NCCN2CCOCC2)nc(SCCCCCC)n1 [Compound D2S6N11] | 0.8%
CCCCCCCCSc1nc(NCC2CCN(C)CC2)nc(SCCCCCCC)n1 [Compound D10S7S8] | 32.9%
CCCCCCCCCCCCCCSc1nc(NCCCCCCCC)nc(NCCN(C)C)n1 [Compound D1S14N8] | 56.7%
CCCCCCCCCCCCCNc1nc(NCCN2CCOCC2)nc(SCCCCCCCC)n1 [Compound D2S8N13] | 7.5%
CCCCCCCCCCCCCCCNc1nc(NCC2CCN(C)CC2)nc(SCCCCCCCCCCCC)n1 [Compound D10S12N15] | 4.1%
CCCCCCCCCCCNc1nc(NCCN2CCN(C)CC2)nc(SCCCCCC)n1 [Compound D5S6N11] | 5.3%
CCCCCCCCCNc1nc(NCCN(C)C)nc(SCCCCCCCCC)n1 [Compound D1S9N9] | 8.0%
CCCCCCCCCCCCCCCCCCSc1nc(NCCCCCCCCCCCCCCC)nc(NCCN(CC)CC)n1 [Compound D7S18N15] | 0.3%
CCCCCCCCCCCCCCCNc1nc(NCCCN2CCN(C)CC2)nc(SCCCCCCCCCCC)n1 [Compound D9S11N15] | 15.7%
CCCCCCCCCCCCCCCSc1nc(NCCCCCCCCCCC)nc(NCCCN(C)C)n1 [Compound D6S15N11] | 7.8%
CCCCCCCCCCCCCCSc1nc(NCCCCCCCC)nc(NCCCN(C)C)n1 [Compound D6S14N8] | 80.6%
CCCCCCCCCCCNc1nc(NCCN2CCCCC2)nc(SCCCCCCC)n1 [Compound D4S7N11] | 1.0%
CCCCCCCCCNc1nc(NCCN(CC)CC)nc(SCCCCCC)n1 [Compound D7S6N9] | 2.4%
CCCCCCCCCSc1nc(NCCN2CCCC2)nc(SCCCCCC)n1 [Compound D3S6S9] | 2.6%
CCCCCCCCCCCCCCSc1nc(NCCCCCC)nc(NCCCN(C)C)n1 [Compound D6S14N6] | 59.9%
CCCCCCCCCCCCN(CCCCCCCCCCCC)c1nc(NCCCN(C)C)nc(SCCCCCCC)n1 [D6S7^2N12] | 0.9%
CCCCCCCCCCCCCCCSc1nc(NCCN(C)C)nc(SCCCCCCC)n1 [Compound D1S7S15] | 3.9%
CCCCCCCCCCCCCCCCCCSc1nc(NCCCCCCCCCCCCCCC)nc(NCCN(C)C)n1 [Compound D1S18N15] | 0.5%
CCCCCCCCCCCCCCCCNc1nc(NCCN2CCOCC2)nc(SCCCCCCCCCC)n1 [Compound D2S10N16] | 0.6%
CCCCCCCCCCCCCCCCNc1nc(NCCCN2CCOCC2)nc(SCCCCCCCC)n1 [Compound D8S8N16] | 4.9%
CCCCCCCCCSc1nc(NCCCCCCCC)nc(NCCN2CCOCC2)n1 [Compound D2S9N8] | 22.6%

SMILES | Absolute mRNA transfection efficiency in HEK293 cells
CCCCCCCCCCCCN(CCCCCCCCCCCC)c1nc(NCCN2CCOCC2)nc(SCCCCCC)n1 [D2S6^2N12] | 0.0%
CCCCCCCCCCCCCCCNc1nc(NCCN(CC)CC)nc(SCCCCCCCC)n1 [Compound D7S8N15] | 15.7%
CCCCCCCCCCCCCCCCSc1nc(NCCCCCC)nc(NCCN2CCOCC2)n1 [Compound D2S16N6] | 23.6%
CCCCCCCCSc1nc(NCCN2CCCC2)nc(SCCCCCC)n1 [Compound D3S6S8] | 1.6%
CCCCCCCCCCCCCCCCCCSc1nc(NCCCCCCCCCCCCCCCC)nc(NCCN2CCOCC2)n1 [Compound D2S18N16] | 0.0%
CCCCCCCCCCCCN(CCCCCCCCCCCC)c1nc(NCCN2CCCC2)nc(SCCCCCCCCCCC)n1 [D3S11^2N12] | 0.0%
CCCCCCCCSc1nc(NCCN2CCCCC2)nc(SCCCCCCCC)n1 [Compound D4S8S8] | 9.9%
CCCCCCCCCCCCCCCCCCSc1nc(NCCCCCCC)nc(NCCN(C)C)n1 [Compound D1S18N7] | 63.0%
CCCCCCCCCCCCCCCCCCSc1nc(NCCCCCCCCCCCCCCC)nc(NCCN2CCN(C)CC2)n1 [Compound D5S18N15] | 0.1%
CCCCCCCCCCCNc1nc(NCCN2CCOCC2)nc(SCCCCCCCC)n1 [Compound D2S8N11] | 8.1%
CCCCCCCCCCCCCCCCCCSc1nc(NCCN2CCOCC2)nc(SCCCCCCC)n1 [Compound D2S7S18] | 5.1%
CCCCCCCCCCCCCCCCSc1nc(NCCCCCCCCCCCC)nc(NCCN2CCOCC2)n1 [Compound D2S16N12] | 1.2%
CCCCCCCCCCCCCCCCSc1nc(NCCCCCCCC)nc(NCCN2CCOCC2)n1 [Compound D2S16N8] | 19.1%
CCCCCCCCCCSc1nc(NCCCCCC)nc(NCCCN2CCN(C)CC2)n1 [Compound D9S10N6] | 1.1%
CCCCCCCCCCCCCCCNc1nc(NCCCN(C)C)nc(SCCCCCC)n1 [Compound D6S6N15] | 12.1%
CCCCCCCCCCCCCCCCCCSc1nc(NCCCN2CCN(C)CC2)nc(N(CCCCCCCCCCCC)CCCCCCCCCCCC)n1 [D9S18^2N12] | 0.0%
CCCCCCCCCCCCNc1nc(NCCN2CCCCC2)nc(SCCCCCCCCCC)n1 [Compound D4S10N12] | 1.0%
CCCCCCCCCCCSc1nc(NCCCN2CCN(C)CC2)nc(SCCCCCC)n1 [Compound D9S6S11] | 8.5%
CCCCCCCCCCCCCNc1nc(NCCN(CC)CC)nc(SCCCCCCCCC)n1 [Compound D7S9N13] | 33.4%
CCCCCCCSc1nc(NCCCN2CCOCC2)nc(SCCCCCCC)n1 [Compound D8S7S7] | 5.0%
CCCCCCCCCCCCCCCCNc1nc(NCCCN(C)C)nc(SCCCCCCCCCCCCCCC)n1 [Compound D6S15N16] | 0.2%
CCCCCCCCCCCCCCSc1nc(NCCCCCC)nc(NCCN(C)C)n1 [Compound D1S14N6] | 29.1%
CCCCCCCCSc1nc(NCCCCCCC)nc(NCCN2CCN(C)CC2)n1 [Compound D5S8N7] | 2.5%

SMILES | Absolute mRNA transfection efficiency in HEK293 cells
CCCCCCCCCCCCCCCCCCNc1nc(NCCCN2CCN(C)CC2)nc(SCCCCCCCCCC)n1 [Compound D9S10N18] | 9.0%
CCCCCCCCCCCCCCCCSc1nc(NCCCN2CCN(C)CC2)nc(SCCCCCCC)n1 [Compound D9S7S16] | 9.2%
CCCCCCCCCCCCCCCCSc1nc(NCCN2CCCCC2)nc(SCCCCCCC)n1 [Compound D4S7S16] | 8.8%
CCCCCCCCCCCCCCCNc1nc(NCCCN2CCOCC2)nc(SCCCCCCC)n1 [Compound D8S7N15] | 2.8%
CCCCCCCNc1nc(NCCN2CCN(C)CC2)nc(SCCCCCCC)n1 [Compound D5S7N7] | 1.0%
CCCCCCCCCCCCN(CCCCCCCCCCCC)c1nc(NCC2CCN(C)CC2)nc(SCCCCCCCCC)n1 [D10S9^2N12] | 7.7%
CCCCCCCCCSc1nc(NCC2CCN(C)CC2)nc(SCCCCCCC)n1 [Compound D10S7S9] | 33.5%
CCCCCCCCCCCCCCCCCCSc1nc(NCCN2CCN(C)CC2)nc(N(CCCCCCCCCCCC)CCCCCCCCCCCC)n1 [D5S18^2N12] | 0.0%
CCCCCCCCCCCCCCSc1nc(NCCCCCCCCCCC)nc(NCCCN(C)C)n1 [Compound D6S14N11] | 20.1%
CCCCCCCCCCCCCCCCNc1nc(NCC2CCN(C)CC2)nc(SCCCCCCCCC)n1 [Compound D10S9N16] | 30.2%
CCCCCCCCCCCCCNc1nc(NCCCN2CCN(C)CC2)nc(SCCCCCCCCCCCC)n1 [Compound D9S12N13] | 1.0%
CCCCCCCCCCCCCCCCSc1nc(NCCN(C)C)nc(SCCCCCC)n1 [Compound D1S6S16] | 0.9%
CCCCCCCCCCCCSc1nc(NCCCN2CCN(C)CC2)nc(N(CCCCCCCCCCCC)CCCCCCCCCCCC)n1 [D9S12^2N12] | 0.8%
CCCCCCCCCSc1nc(NCCN2CCCCC2)nc(SCCCCCC)n1 [Compound D4S6S9] | 0.7%
CCCCCCCCCCSc1nc(NCCCCCCCCC)nc(NCCCN(C)C)n1 [Compound D6S10N9] | 8.7%
CCCCCCCCCCCCCCCCNc1nc(NCCCN2CCN(C)CC2)nc(SCCCCCCCCCCCCCCC)n1 [Compound D9S15N16] | 2.7%
CCCCCCCCCCCCCNc1nc(NCCCN2CCN(C)CC2)nc(SCCCCCCC)n1 [Compound D9S7N13] | 60.4%
CCCCCCCCCCCCCCCCSc1nc(NCCCCCCCCCCCCC)nc(NCCN2CCCC2)n1 [Compound D3S16N13] | 0.4%
CCCCCCCCCCCCCNc1nc(NCCN(C)C)nc(SCCCCCCC)n1 [Compound D1S7N13] | 12.8%
CCCCCCCCCCCCN(CCCCCCCCCCCC)c1nc(NCCN(C)C)nc(SCCCCCCCCCC)n1 [D1S10^2N12] | 0.4%
CCCCCCCCCCCNc1nc(NCC2CCN(C)CC2)nc(SCCCCCCCCC)n1 [Compound D10S9N11] | 66.0%

— patent US20230123334A1, “AMINO LIPID COMPOUND, PREPARATION METHOD THEREFOR, AND APPLICATION THEREOF” (SHENZHEN SHENXIN BIOTECHNOLOGY CO., LTD., priority 2020, published 2023)
